The source of these data is patent US20240209028A1, “CNP COMPOUNDS” (priority 2022, published 2024).

Starred links: 1 amine or outer side, 2 acyl side, 3 side chain; linkers in the order of their positions; H or OH if unused. Positions of bridges follow the written chain, without caps; N, C: chain ends. Non-standard residues stand in square brackets, D forms with d. Residues, ends and D or L forms follow the SMILES beside them. No end group written: not given here. *: point of attachment. C18 diacid = O=C(O)CCCCCCCCCCCCCCCCC(=O)*; γGlu = O=C(O)[C@H](CCC(=O)[*:2])N[*:1]; AEEA = NCCOCCOCC(=O)O

The test addresses T1, human natriuretic peptide receptor 2 (hNPR2) (Homo sapiens, UniProt P20594).
T1 construct: expressed in transfected cells; host or cells: HEK293 (ATCC CRL-1573), clone 35, co-transfected with pGloSensor-42F
T1 sequence (P20594 23-1047): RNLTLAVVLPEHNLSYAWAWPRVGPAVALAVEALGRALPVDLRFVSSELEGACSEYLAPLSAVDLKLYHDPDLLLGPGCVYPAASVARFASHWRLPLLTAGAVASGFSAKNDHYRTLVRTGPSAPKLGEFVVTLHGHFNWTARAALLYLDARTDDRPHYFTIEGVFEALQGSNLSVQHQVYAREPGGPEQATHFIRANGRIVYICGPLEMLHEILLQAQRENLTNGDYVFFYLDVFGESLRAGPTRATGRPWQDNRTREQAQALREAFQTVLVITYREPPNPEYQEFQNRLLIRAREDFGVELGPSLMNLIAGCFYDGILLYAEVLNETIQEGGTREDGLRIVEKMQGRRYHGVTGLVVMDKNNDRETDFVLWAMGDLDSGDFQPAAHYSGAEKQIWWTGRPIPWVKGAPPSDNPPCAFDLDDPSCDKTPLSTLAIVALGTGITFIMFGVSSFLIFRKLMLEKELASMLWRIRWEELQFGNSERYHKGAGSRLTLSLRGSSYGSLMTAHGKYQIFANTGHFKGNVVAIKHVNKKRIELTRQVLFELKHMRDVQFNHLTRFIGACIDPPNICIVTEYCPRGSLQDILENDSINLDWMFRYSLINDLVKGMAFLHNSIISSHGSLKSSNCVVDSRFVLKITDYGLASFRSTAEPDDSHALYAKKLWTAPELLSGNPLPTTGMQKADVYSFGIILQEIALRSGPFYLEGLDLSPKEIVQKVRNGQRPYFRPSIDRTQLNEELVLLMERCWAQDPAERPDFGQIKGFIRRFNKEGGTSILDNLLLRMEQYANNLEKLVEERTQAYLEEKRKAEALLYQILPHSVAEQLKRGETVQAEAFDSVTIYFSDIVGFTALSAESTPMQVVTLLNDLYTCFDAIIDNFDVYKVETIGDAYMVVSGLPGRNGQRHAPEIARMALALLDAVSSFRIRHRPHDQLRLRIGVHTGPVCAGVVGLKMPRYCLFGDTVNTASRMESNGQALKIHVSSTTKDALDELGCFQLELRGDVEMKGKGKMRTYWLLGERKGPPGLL
Put plainly: In vitro hNPR2 activity assay (cGMP GloSensor reporter, HEK293). It is filed as cell-based. As to conditions: for hNPR2 0% HSA. [EC50% rel CNP]: potency relative to CNP22 (0065); for EC50: 0% HSA, HEK293-hNPR2/GloSensor cells. The method in brief: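 Potency is the EC50 from a four-parameter logistic fit, also expressed relative to the in-plate CNP22 control (×100), with at least two replicates. Compounds (ten concentrations, […], HSA-free diluent with 1% OVA, 0.01% Tween20) were incubated 30 min at 37 °C on HEK293 cells co-expressing hNPR2 and a GloSensor cGMP luciferase. Luminescence detected with Bright-Glo.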

Consider `CC[C@H](C)[C@@H]1NC(=O)[C@H](CCCNC(=N)N)NC(=O)[C@H](CC(=O)O)NC(=O)[C@H](CC(C)C)NC(=O)[C@@H]2CCCN2C(=O)[C@H](CC(C)C)NC(=O)CNC(=O)[C@H](Cc2ccccc2)NC(=O)[C@@H](NC(=O)CNC(=O)[C@H](CCC(N)=O)NC(=O)[C@H](CO)NC(=O)[C@H](CC(C)C)NC(=O)CNC(=O)[C@H](CCCCN)NC(=O)[C@H](CCCCN)NC(=O)[C@H](CCC(N)=O)NC(=O)[C@H](C)NC(=O)CNC(=O)[C@@H]2CCCN2C(=O)[C@H](C)NC(=O)[C@H](CCC(N)=O)NC(=O)CNC(=O)[C@@H]2CCCN2C(=O)[C@H](C)NC(=O)[C@H](CCC(N)=O)NC(=O)CNC(=O)[C@@H]2CCCN2C(=O)[C@H](C)NC(=O)[C@H](CCC(N)=O)NC(=O)CNC(=O)CC[C@H](NC(=O)CCCCCCCCCCCCCCCCC(=O)O)C(=O)O)CSSC[C@@H](C(=O)O)NC(=O)CNC(=O)[C@H](CC(C)C)NC(=O)CNC(=O)[C@H](CO)NC(=O)[C@H](CC(C)C)NC(=O)[C@H](CO)NC(=O)CNC1=O` [compound 1488] ({C18 diacid-γGlu}-GQAPGQAPGQAPGAQKKGLSQGCFGLPLDRIGSLSGLGC-OH; disulfide 23-39), for which the “hNPR2 0% HSA. [EC50% rel CNP]” value was determined as 29.3%.
On to `CC[C@H](C)[C@@H]1NC(=O)[C@H](CCCNC(=N)N)NC(=O)[C@H](CCC(=O)O)NC(=O)[C@H](CC(C)C)NC(=O)[C@@H]2CCCN2C(=O)[C@H](CC(C)C)NC(=O)CNC(=O)[C@H](Cc2ccccc2)NC(=O)[C@@H](NC(=O)CNC(=O)[C@H](CCC(N)=O)NC(=O)[C@H](CO)NC(=O)[C@H](CC(C)C)NC(=O)CNC(=O)[C@H](CCCCN)NC(=O)[C@H](CCCCN)NC(=O)[C@H](CCC(N)=O)NC(=O)[C@H](C)NC(=O)CNC(=O)[C@H](CCCCN)NC(=O)[C@H](Cc2ccc(O)cc2)NC(=O)COCCOCCNC(=O)COCCOCCNC(=O)COCCOCCNC(=O)COCCOCCNC(=O)CC[C@H](NC(=O)CC[C@H](NC(=O)CCCCCCCCCCCCCCCCC(=O)O)C(=O)O)C(=O)O)CSSC[C@@H](C(=O)O)NC(=O)CNC(=O)[C@H](CC(C)C)NC(=O)CNC(=O)[C@H](CO)NC(=O)[C@H](CC(C)C)NC(=O)[C@H](CO)NC(=O)CNC1=O` [compound 1493] ({C18 diacid-γGlu-γGlu-AEEA-AEEA-AEEA-AEEA}-YKGAQKKGLSQGCFGLPLERIGSLSGLGC-OH; disulfide 13-29; C-terminus assumed), for which the EC50 is 0.8 nM and the “hNPR2 0% HSA. [EC50% rel CNP]” value was 11.5%.
In the same order, the values of `CC[C@H](C)[C@@H]1NC(=O)[C@H](CCCNC(=N)N)NC(=O)[C@H](CC(=O)O)NC(=O)[C@H](CC(C)C)NC(=O)[C@H](CCCCN)NC(=O)[C@H](CC(C)C)NC(=O)CNC(=O)[C@H](Cc2ccccc2)NC(=O)[C@@H](NC(=O)CNC(=O)[C@H](CCCCN)NC(=O)[C@H](CO)NC(=O)[C@H](CC(C)C)NC(=O)CNC(=O)[C@H](CCCCN)NC(=O)[C@H](CCCCN)NC(=O)[C@H](CC(N)=O)NC(=O)[C@H](C)NC(=O)CNC(=O)[C@H](CCCCN)NC(=O)[C@H](Cc2ccc(O)cc2)NC(=O)[C@H](CCCCN)NC(=O)[C@H](CCCNC(=N)N)NC(=O)[C@H](C)NC(=O)[C@H](CC(N)=O)NC(=O)[C@@H]2CCCN2C(=O)[C@H](Cc2c[nH]cn2)NC(=O)[C@H](CCC(=O)O)NC(=O)[C@@H](N)CCC(N)=O)CSSC[C@@H](C(=O)O)NC(=O)CNC(=O)[C@H](CC(C)C)NC(=O)CNC(=O)[C@H](CO)NC(=O)[C@H](CCSC)NC(=O)[C@H](CO)NC(=O)CNC1=O` [compound 1510] are 0.05 nM and 139.2%.
Turning to “{C18 diacid-γGlu-AEEA-AEEA}-GQAPGQAPGQAPGQAPGQAPGLSKGCFGLKLDRIGSMSGLGC-OH (disulfide 26-42) [compound 0230]”, the “hNPR2 0% HSA. [EC50% rel CNP]” value is on record as 0.4%.
For “{C18 diacid}-EEEEE[AEEA][AEEA][AEEA][AEEA]ARKYKGAQKKGLSQGCFGLPLDRIGSLSGLGC (disulfide 25-41) [compound 1475]”, the “hNPR2 0% HSA. [EC50% rel CNP]” value came to 46.5%.
Still for that read-out and setting: in the case of “{C18 diacid}-EGEGEGEGE[AEEA][AEEA]ARKYKGAQKKGLSQGCFGLPLDRIGSLSGLGC-OH (disulfide 27-43) [compound 1476]” it was 48.4%.

What is called EC50 is the concentration needed to bring the measured effect to its halfway point. The low end stands for a more potent agent, the high end for a less potent agent.
